Results as given in ChEMBL document CHEMBL3875184, “Biosynthetic approaches to creating bioactive fungal metabolites: Pathway engineering and activation of secondary metabolism” (Bioorg Med Chem Lett, 2016).

Assays:
[1] = Cytotoxicity against human HeLa cells assessed as reduction in cell viability after 48 hrs by SF-based cell counting method; format: functional
[2] = (§1) Inhibition of Drosophila Kinesin-1 assessed as reduction in microtubule-stimulated ATPase activity preincubated for 15 mins followed by microtubule addition in the presence of ATP after 6 mins by malachite green method
[3] = target: T1, Kinesin-like protein KIF11 (Homo sapiens, UniProt P52732); test: as §1, with “wild type eXact-tagged human Eg5 motor domain (1 to 368 residues) expressed in Escherichia coli BL21(DE3)” for “Drosophila Kinesin-1”
T1 sequence (P52732 whole entry): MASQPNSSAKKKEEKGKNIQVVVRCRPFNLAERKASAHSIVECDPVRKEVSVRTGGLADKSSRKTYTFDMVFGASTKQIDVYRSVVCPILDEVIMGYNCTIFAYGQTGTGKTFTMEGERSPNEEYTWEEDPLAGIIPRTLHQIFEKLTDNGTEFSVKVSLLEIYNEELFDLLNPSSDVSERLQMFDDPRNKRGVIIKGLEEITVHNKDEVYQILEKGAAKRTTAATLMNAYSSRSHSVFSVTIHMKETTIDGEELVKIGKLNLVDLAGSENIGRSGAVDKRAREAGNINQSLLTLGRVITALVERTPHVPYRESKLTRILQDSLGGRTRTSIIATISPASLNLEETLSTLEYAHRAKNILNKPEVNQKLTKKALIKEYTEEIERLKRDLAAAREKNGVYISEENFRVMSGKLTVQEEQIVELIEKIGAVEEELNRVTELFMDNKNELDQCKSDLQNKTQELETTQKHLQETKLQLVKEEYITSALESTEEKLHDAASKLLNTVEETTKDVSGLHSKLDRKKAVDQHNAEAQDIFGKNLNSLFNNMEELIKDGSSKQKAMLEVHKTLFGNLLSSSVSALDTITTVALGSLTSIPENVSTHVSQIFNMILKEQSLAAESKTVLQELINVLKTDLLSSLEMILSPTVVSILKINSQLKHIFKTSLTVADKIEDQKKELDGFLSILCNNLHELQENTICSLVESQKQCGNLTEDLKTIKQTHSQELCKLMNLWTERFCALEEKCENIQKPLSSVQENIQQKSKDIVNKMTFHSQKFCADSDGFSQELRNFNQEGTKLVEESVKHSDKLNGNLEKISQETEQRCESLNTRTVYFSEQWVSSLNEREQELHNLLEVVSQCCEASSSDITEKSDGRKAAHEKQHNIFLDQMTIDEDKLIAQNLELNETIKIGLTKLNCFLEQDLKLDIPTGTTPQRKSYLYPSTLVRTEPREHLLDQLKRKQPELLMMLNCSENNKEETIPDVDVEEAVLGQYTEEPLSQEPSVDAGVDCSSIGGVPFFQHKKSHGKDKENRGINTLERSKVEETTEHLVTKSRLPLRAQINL

[4] = target: T2, Broad substrate specificity ATP-binding cassette transporter ABCG2 (Homo sapiens, UniProt Q9UNQ0); test: Inhibition of BCRP in human K562 cells assessed as potentiation of SN38-mediated growth inhibition at 3 uM after 4 days by coulter counter method; format: cell-based; conditions: k562, 96 h
T2 sequence (Q9UNQ0 whole entry): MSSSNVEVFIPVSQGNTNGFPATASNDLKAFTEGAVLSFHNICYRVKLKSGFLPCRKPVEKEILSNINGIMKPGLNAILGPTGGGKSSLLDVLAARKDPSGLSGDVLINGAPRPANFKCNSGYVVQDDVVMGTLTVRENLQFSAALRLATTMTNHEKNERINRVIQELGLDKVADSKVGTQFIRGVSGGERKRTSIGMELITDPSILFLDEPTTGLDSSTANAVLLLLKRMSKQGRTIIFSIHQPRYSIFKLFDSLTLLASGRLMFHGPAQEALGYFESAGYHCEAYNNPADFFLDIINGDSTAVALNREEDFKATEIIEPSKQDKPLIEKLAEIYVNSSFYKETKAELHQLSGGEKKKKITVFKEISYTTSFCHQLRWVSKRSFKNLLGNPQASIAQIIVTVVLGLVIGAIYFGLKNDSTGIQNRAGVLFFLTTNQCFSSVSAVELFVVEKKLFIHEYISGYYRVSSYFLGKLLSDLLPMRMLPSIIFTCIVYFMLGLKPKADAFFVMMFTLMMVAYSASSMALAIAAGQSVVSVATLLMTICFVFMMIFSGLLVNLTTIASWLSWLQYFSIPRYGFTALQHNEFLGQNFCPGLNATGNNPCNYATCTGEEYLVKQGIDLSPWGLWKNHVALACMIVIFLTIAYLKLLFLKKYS

[5] = target: T2, Broad substrate specificity ATP-binding cassette transporter ABCG2; test: Inhibition of BCRP (unknown origin)-dependent ATPase activity at 50 uM after 30 mins by malachite green method; conditions: 0.5 h
[6] = Cytotoxicity against human MCF7 cells; format: functional, cell-based
[7] = Cytotoxicity against human HT-29 cells; format: functional, cell-based
[8] = Cytotoxicity against human Jurkat cells; format: functional, cell-based
[9] = Cytotoxicity against human HeLa cells; format: functional, cell-based

| SMILES | IC50 [1] | IC50 [2] | IC50 [3] | inhibition (INH) [4] | inhibition (INH) [5] | IC50 [6] | IC50 [7] | IC50 [8] | IC50 [9] |
| --- | --- | --- | --- | --- | --- | --- | --- | --- | --- |
| CC(C)(O)[C@@H]1CC(=O)[C@]2(C)[C@H](CC[C@@]3(C)[C@H]2CC[C@H]2Cc4c([nH]c5ccccc45)[C@@]23C)O1 | 2.9 µM | > 100 µM | 16.5 µM | – | – | – | – | – | – |
| COc1ccc2c3c([nH]c2c1)[C@H](C=C(C)C)N1C(=O)[C@@H]2CCCN2C(=O)[C@]1(O)[C@H]3O | – | – | – | Active | Active | – | – | – | – |
| COc1ccc2c3c(n(CC=C(C)C)c2c1)[C@H](C=C(C)C)N1C(=O)[C@@H]2CCCN2C(=O)[C@]1(O)[C@H]3O | – | – | – | Active | Active | 5 to 15 µM | 5 to 15 µM | 5 to 15 µM | 5 to 15 µM |
| COc1ccc2c3c4n(c2c1)[C@@H](C=C(C)C)OOC(C)(C)C[C@@H]4N1C(=O)[C@@H]2CCCN2C(=O)[C@]1(O)[C@H]3O | – | – | – | Active | Active | 20 to 30 µM | 20 to 30 µM | 20 to 30 µM | 20 to 30 µM |
| CC(C)=C[C@H]1c2[nH]c3ccccc3c2C[C@H]2C(=O)N3CCC[C@H]3C(=O)N21 [DEMETHOXYFUMITREMORGIN C] | – | – | – | Active | Active | – | – | – | – |
| COc1ccc2c3c([nH]c2c1)[C@H](C=C(C)C)N1C(=O)[C@@H]2CCCN2C(=O)[C@@H]1C3 [FUMITREMORGIN] | – | – | – | Active | Active | – | – | – | – |
| CC(C)(O)[C@@H]1C[C@@H](O)[C@]2(C)[C@H](CC[C@@]3(C)[C@H]2CC[C@H]2Cc4c([nH]c5ccccc45)[C@@]23C)O1 [TERPENDOLE E] | 12.1 µM | > 100 µM | 34.7 µM | – | – | – | – | – | – |
